Laboratory results as given in patent US9163018B2, “Method of treatment of age-related macular degeneration (AMD)” (Prana Biotechnology Limited, priority 2006, dated 2015).

How the values were obtained:
Aβ 1-42 = molecular target: T1, Aβ 1-42 (Homo sapiens, UniProt P05067); test: Fluorometric H2O2 assay (inhibition of Abeta H2O2 production); assay type: biochemical; conditions: concentration required to inhibit 50% of Abeta H2O2 production; read-out: H2O2 IC50
T1 construct: The reaction solutions contained Aβ 1-42 at concentrations
In short: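 Copper-dependent Aβ H2O2 production measured fluorometrically with deacetylated dichlorofluorescein plus HRP in PBS, pH 7.4. Incubation 60 min at 37 C, test compound included in wells. H2O2 quantified against H2O2 standards.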

[1] = test system: primary cortical neuronal cultured cells; test: Test compound cytotoxicity, MTS assay, primary cortical neuronal cultures; assay type: cell-based, mouse; conditions: for Cytotox (% viable) Neuronal cells at 1 μM: 1 μM test compound; for Cytotox (% viable) Neuronal cells at 10 μM: 10 μM test compound
In short: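 Primary cortical neurons were cultured five days in Neurobasal/B27, then exposed on day six to compounds (from 2.5 mM DMSO stocks) in medium minus antioxidants, in triplicate for 4 days at 37° C. Viability was measured by MTS, 2 h at 37° C, absorbance at 560 nm.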

[2] = test system: M17 human neuroblastoma cells; test: Cytotoxicity, M17 human neuroblastoma cells; assay type: cell-based; conditions: for Cytotox (% viable) M17 cells at 1 μM: 1 μM test compound; for Cytotox (% viable) M17 cells at 10 μM: 10 μM test compound
Procedure: Assay 3. MTS Assay for Cell Viability
Cell viability is determined using the MTS assay. Culture medium is replaced with fresh neurobasal medium plus B27 supplements minus antioxidants. 1/10th volume MTS solution (Cell Titre 96 Aqueous One, Promega Corporation) and incubated at 37° C., 2 hrs. 200 microliter aliquots are measured with a spectrophotometer at 560 nm.

[3] = test system: dityrosine oligomerization; test: CuTy: inhibition of dityrosine oligomerization; assay type: biochemical; conditions: referenced to in-house standard (set as 100% inhibition)
[4] = Mice plasma concentration after oral dose; assay type: in vivo; conditions: 30 min to 4 h after single or repeat oral dose of 30 mg/kg
[5] = Toxicity, visual observations in mice; conditions: 30 mg/kg; duration and visual observations
[6] = molecular target: T2, Abeta:Zn (25:50 μM) Synthetic Aggregations (Homo sapiens, UniProt P05067); test: Disaggregation of Abeta:Zn synthetic aggregates (ThT fluorescence); assay type: biochemical; conditions: for Disaggregation % Aggregate reduction at 5 μM: 5 μM test compound; for EC50: Abeta:Zn 25:50 μM aggregates
T2 construct: PB Compound Mediated Dissolution of Aggregated Abeta 1-42; purchased Keck Laboratory, Yale University School of Medicine
In short: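 Abeta1-42 (25 μM) with ZnCl2 (50 μM) and ThT (50 μM) in PBS pH 6.6 was preaggregated 24 h at 37 degrees with rotation. Aggregates were then exposed to compound (final 1-50 μM, DMSO) for 2 h at 37 degrees. ThT fluorescence was read at ex 450/em 480 nm.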

Aβ deposits = conditions: daily oral gavage 30 mg/kg, 9 weeks, 13-14 months old transgenic mice

T1 sequence (P05067 672-713 limits assumed): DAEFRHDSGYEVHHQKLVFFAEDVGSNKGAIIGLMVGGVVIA
T2 sequence (P05067 672-713 limits assumed): as above

SMILES | IC50 (Aβ 1-42) | Cytotox (% viable) Neuronal cells at 1 μM [1] | Cytotox (% viable) Neuronal cells at 10 μM [1] | Cytotox (% viable) M17 cells at 1 μM [2] | Cytotox (% viable) M17 cells at 10 μM [2] | CuTy % inhibition of dityrosine oligomerization [3] | Mice plasma concentration [4] | Toxicity at 30 mg/kg [5] | Disaggregation % Aggregate reduction at 5 μM [6] | EC50 [6] | Tg Mice % difference from control in Amyloid plaque abundance (Aβ deposits) | Tg Mice % difference from control in insoluble brain amyloid burden (Aβ deposits) | Tg Mice % difference from control in soluble brain amyloid burden (Aβ deposits)
Cn1nccc1-n1cnc2c(O)c(Cl)cc(Cl)c2c1=O [PB 1262] | 940 nM | 104.6% | 83.7% | 106.5% | 94.2% | CuTy No effect | Up to 7107 ng/ mL ng/mL | 10 days, none (16/11/05) |  |  |  |  | 
O=c1c2c(Cl)cc(Cl)c(O)c2ncn1Cc1ccncc1 [PB 1241] | 440 nM | 98.4% | 90.9% | 105.4% | 90.4% | CuTy: 80% inhibition | Up to 2181.1 ng/mL | 10 days, none |  |  |  |  | 
Cc1nc(Cn2cnc3c(O)c(Cl)cc(Cl)c3c2=O)cs1 [PB-1084] |  | 100% | 93% | 97% | 95.7% | CuTy: 75% inhibition | Up to 2439 ng/ mL ng/mL | 10 days, none | 23.4% | 40700 nM | decrease | No change | −29%
O=c1c2c(Cl)cc(Cl)c(O)c2ncn1Cc1ccn2ccnc2c1 [PB 1252] | 720 nM | 94.6% | 103.1% | 105.4% | 105.1% | CuTy: 50% inhibition | Up to 1465.4 ng/mL | 10 days, none |  |  |  |  | 
Br.CNCc1nc2c(O)c(Cl)cc(Cl)c2c(=O)n1C [PB 1161] |  | 105.4% | 103.9% | 101.4% | 112.5% | 100% inhib | Up to 510.4 ng/mL | 10 days, none | 27% | > 20000 nM | −64% | No change | No change
O=C(O)CCCn1cnc2c(O)c(Cl)cc(Cl)c2c1=O [PB 1255] | 930 nM | 97.9% | 98.0% | 109.7% | 102.9% | CuTy: 125% inhibition | Up to 17008 ng/ mL ng/mL | 10 days, none |  |  |  |  | 
Cn1ccnc1Cn1cnc2c(O)c(Cl)cc(Cl)c2c1=O [PB 1243] | 380 nM |  |  | 112% | 122.3% | CuTy: 60% inhibition | Up to 13214.8 ng/mL | 10 days, none |  |  |  |  | 
O=c1c2c(Cl)cc(Cl)c(O)c2ncn1CC1CC1 [PB-1076] |  | 116% | 105% | 96.2% | 76.8% | 100% inhibit | Up to 2698 ng/ mL in mice ng/mL | 11 days, none | 15.1% | > 20000 nM | −29% | −26% | −37%
O=c1c2c(Cl)cc(Cl)c(O)c2ncn1-c1ccc2[nH]ncc2c1 [PB 1246] | 310 nM |  |  | 104.3% | 73.5% | CuTy: 120% inhibition | Up to 126 ng/ mL ng/mL | 10 days, none |  |  |  |  | 
Br.CN(C)Cc1nc2c(O)c(Cl)cc(Cl)c2c(=O)n1C [PB 1269] | 280 nM |  |  | 109.3% | 114.7% | CuTy: 110% inhibition | Up to 492.1 ng/ml ng/mL | 10 days, 1/4 mild signs |  |  |  |  | 
O=c1c2c(Cl)cc(Cl)c(O)c2ncn1C1=CCC=C1 [PB 1244] | 1320 nM |  |  | 125.7% | 114.8% | CuTy: 10% inhibition | Up to 1477.4 ng/mL | 10 days, none |  |  |  |  | 
CCn1c(CN(C)C)nc2c(O)c(Cl)cc(Cl)c2c1=O.Cl [PB 1268] | 360 nM |  |  | 99.2% | 102.1% | CuTy: 110% inhibition | Up to 975.9 ng/ml ng/mL | 10 days, none |  |  |  |  | 
O=c1c2c(Cl)cc(Cl)c(O)c2ncn1Cc1cccnc1 [PB 1240] | 320 nM |  |  | 106.4% | 100.2% | CuTy: 60% inhibition | Up to 4023.4 ng/mL | 10 days, none |  |  |  |  | 
Cc1noc(C)c1Cn1cnc2c(O)c(Cl)cc(Cl)c2c1=O [PB-1085] |  | 99% | 72% | 104.9% | 76.2% | CuTy: 90% inhibition | Up to 3644 ng/ mL ng/mL | 10 days, none | 25% | > 20000 nM | −43% | −34% | increase
O=c1c2c(Cl)cc(Cl)c(O)c2ncn1Cc1cn2ccccc2n1 [PB 1239] | 480 nM |  |  | 109.2% | 98.2% | CuTy: 50% inhibition | Up to 98.3 ng/ mL ng/mL | 10 days, none |  |  |  |  | 
Br.CN1CCCC1Cn1cnc2c(O)c(Cl)cc(Cl)c2c1=O (stereo not shown) [PB 1253] | 430 nM |  |  | 106.6% | 93.9% | CuTy: 70% inhibition | Up to 382.5 ng/ mL ng/mL | 10 days, none |  |  |  |  | 
O=c1c2c(Cl)cc(Cl)c(O)c2ncn1CCNCc1ccncc1 [PB 1264] | 450 nM |  |  | 103% | 104.8% | CuTy: 100% inhibition | Up to 1639.8 ng/mL | 10 days, none |  |  |  |  | 
O=c1c2c(Cl)cc(Cl)c(O)c2ncn1Cc1ccccn1 [PB-1077] |  | 99% | 98% | 97.7% | 91% | CuTy: 50% inhibition | Up to 984 ng/ mL in mice ng/mL | 10 days, none | 24% | > 20000 nM | −30% | No change | No change
CN(C)Cc1nc2c(O)c(Cl)cc(Cl)c2c(=O)n1CC1CC1.Cl [PB 1267] | 370 nM |  |  | 94.4% | 74.5% | CuTy: 110% inhibition | Up to 1166.6 ng/ml ng/mL | 10 days, none |  |  |  |  | 
CC(C)c1cnc2c(O)cccn2c1=O [PB 1135] | 270 nM |  |  | 99.7% | 45.6% | CuTy: 90% inhibition | Up to 409 ng/ml ng/mL | 10 days, none | 31% | > 20000 nM |  |  | 
